Target: T1, TLR9 (Homo sapiens, UniProt Q9NR96)
T1 construct: expressed in transfected cells; host or cells: HEK293
T1 sequence (Q9NR96 26-1032): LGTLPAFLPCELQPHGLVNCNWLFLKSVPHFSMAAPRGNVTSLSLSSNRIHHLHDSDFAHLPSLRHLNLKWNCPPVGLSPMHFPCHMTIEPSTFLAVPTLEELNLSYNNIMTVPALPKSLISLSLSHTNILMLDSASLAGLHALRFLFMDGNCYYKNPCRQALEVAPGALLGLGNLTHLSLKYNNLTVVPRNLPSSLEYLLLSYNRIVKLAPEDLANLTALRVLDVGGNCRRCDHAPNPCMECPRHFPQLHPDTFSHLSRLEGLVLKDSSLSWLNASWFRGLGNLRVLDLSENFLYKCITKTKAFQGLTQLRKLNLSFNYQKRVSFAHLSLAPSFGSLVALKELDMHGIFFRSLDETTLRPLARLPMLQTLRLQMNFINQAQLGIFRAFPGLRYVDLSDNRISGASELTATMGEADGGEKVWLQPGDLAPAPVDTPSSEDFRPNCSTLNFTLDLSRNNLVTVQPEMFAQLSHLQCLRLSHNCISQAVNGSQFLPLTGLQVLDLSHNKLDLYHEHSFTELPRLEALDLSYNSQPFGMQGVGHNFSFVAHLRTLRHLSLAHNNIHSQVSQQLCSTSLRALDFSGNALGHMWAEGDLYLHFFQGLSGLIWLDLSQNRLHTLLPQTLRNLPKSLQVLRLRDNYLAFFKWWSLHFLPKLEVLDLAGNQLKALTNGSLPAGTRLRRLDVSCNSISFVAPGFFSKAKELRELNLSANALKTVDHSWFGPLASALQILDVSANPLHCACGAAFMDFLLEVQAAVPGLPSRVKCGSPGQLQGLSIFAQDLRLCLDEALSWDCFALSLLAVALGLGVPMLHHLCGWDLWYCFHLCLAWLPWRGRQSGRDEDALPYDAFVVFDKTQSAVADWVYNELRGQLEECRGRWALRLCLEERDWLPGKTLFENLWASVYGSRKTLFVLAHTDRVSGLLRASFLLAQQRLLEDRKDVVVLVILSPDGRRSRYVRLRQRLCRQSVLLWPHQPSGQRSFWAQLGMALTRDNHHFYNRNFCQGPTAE
Assay: TLR9 screening of (+)-morphinan library, SEAP reporter in HEK293 cells expressing TLR9
Assay type: cell-based
Settings: activator ODN2006; for OD 650 nm (mean ± sd): control (no activator) 0.14, activator 1.42 OD; for inhibition at 0.1 µM: HEK293, read-out: % Inhibition (mean), 100 nM; for inhibition at 10 µM: HEK293, read-out: % Inhibition (mean), 10 μM
Protocol: The secreted alkaline phosphatase reporter is under the control of a promoter inducible by the transcription factor NF-κB. A library of more than 100 (+)-morphinan compounds was screened for TLR9 antagonist activity by assessing NF-κB activation in the HEK293 cells expressing TLR9. This reporter gene allows the monitoring of signaling through the TLR, based on the activation of NF-κB.
In a 96-well plate (200 μL total volume) containing 50,000 cells/well, 20 μL of each sample compound was added to wells, in triplicate, followed by a 30 minute incubation at 37° C. and 5% CO2. After the 30 minutes of incubation, 20 μL of the activator ODN2006 was added to each well. The media added to the wells was designed for the detection of NF-κB induced SEAP expression. After a 16-20 hr incubation period, the OD at 650 nm was read on a Beckman Coulter AD 340C Absorbance Detector. All compounds were tested at concentrations of 10 μM and 100 nM.

| Structure (SMILES) | % Inhibition (mean) (100 nM, 0.1 µM) | OD 650 nm (mean ± sd) (100 nM) | % Inhibition (mean) (10 μM) | OD 650 nm (mean ± sd) (10 μM) | inhibition at 0.1 µM | inhibition at 10 µM |
| --- | --- | --- | --- | --- | --- | --- |
| COc1ccc2c3c1O[C@@H]1C(O)CC[C@]4(O)[C@H](C2)N(CC2CC2)CC[C@@]314 (single isomer, unassigned) [II-53a] | 14% | 1.22 ± 0.05 OD | 7% | 1.32 ± 0.13 OD |  |  |
| COc1ccc2c3c1O[C@@H]1C(O)CC[C@]4(O)[C@H](C2)N(CC2CC2)CC[C@@]314 (single isomer, unassigned) [II-53b] | 1% | 1.41 ± 0.09 OD | 29% | 1.00 ± 0.03 OD |  |  |
| C=CCN1CC[C@@]23c4c5ccc(OC)c4OC2C(OC(C)=O)CC[C@@H]3C1C5 (single isomer, unassigned) [II-94a] |  | 1.13 ± 0.04 OD | 18% | 1.16 ± 0.08 OD | 20% |  |
| C=CCN1CC[C@@]23c4c5ccc(OC)c4OC2C(OC(C)=O)CC[C@@H]3C1C5 (single isomer, unassigned) [II-94b] | 17% | 1.17 ± 0.03 OD | 8% | 1.30 ± 0.05 OD |  |  |
| C=CCN1CC[C@@]23c4c5ccc(OC)c4O[C@@H]2[C@H](O)CC[C@]3(O)[C@@H]1C5 (stereo in doubt) [II-48] |  |  |  |  |  | 13% |
| COc1cc(Br)c2c(c1O)[C@@]13CCNC(C2)C1CCC(=O)C3 (stereo partly drawn) [Compound I-1] |  | 1.18 ± 0.10 OD |  | 0.21 ± 0.01 OD | 17% | 85% |
| COc1cc(Br)c2c(c1O)[C@@]13CCN(CC4CC4)C(C2)C1CCC(=O)C3 (stereo partly drawn) [Compound I-2] |  | 1.10 ± 0.06 OD |  | 0.14 ± 0.02 OD | 22% | 90% |
| C=CCN1CC[C@@]23CC(=O)CCC2C1Cc1c(-c2ccoc2)cc(OC)c(O)c13 (stereo partly drawn) [Compound I-3] |  | 1.12 ± 0.01 OD |  | 0.11 ± 0.00 OD | 21% | 92% |
| COC(=O)CCc1cc(OC)c(O)c2c1CC1C3CCC(=O)C[C@@]23CCN1CC1CC1 (stereo partly drawn) [Compound I-4] |  | 1.17 ± 0.06 OD |  | 0.46 ± 0.05 OD | 18% | 68% |
| COc1ccc2c(c1O)[C@@]13CCN(CC4CC4)C(C2)C1CCC(=O)C3 (stereo partly drawn) [Compound I-6] |  | 1.29 ± 0.07 OD |  | 0.12 ± 0.02 OD | 9% | 91% |
| C=CCN1CC[C@@]23CC(=O)CCC2C1Cc1ccc(OC)c(O)c13 (stereo partly drawn) [Compound I-7] |  | 1.14 ± 0.03 OD |  | 0.16 ± 0.01 OD | 20% | 89% |
| COc1cc(Br)c2c(c1O)[C@@]13CCN(CC4CCC4)C(C2)C1CCC(=O)C3 (stereo partly drawn) [Compound I-8] |  | 1.13 ± 0.07 OD |  | 0.11 ± 0.01 OD | 20% | 92% |
| COc1ccc2c(c1O)[C@@]13CCN(C)[C@@H](C2)[C@@]1(O)CC(OC)C(=O)C3 (stereo partly drawn) [Compound I-9] |  | 1.50 ± 0.10 OD |  | 1.03 ± 0.01 OD | -6% | 28% |
| COc1ccc2c(c1O)[C@@]13CCN(C)[C@@H](C2)[C@H]1CC(OC)C(O)C3 (stereo partly drawn) [Compound I-10] |  | 1.32 ± 0.04 OD |  | 1.04 ± 0.08 OD | 7% | 27% |
| CCOC(=O)N1CC[C@@]23CC(=O)CCC2C1Cc1c(Br)cc(OC)c(O)c13 (stereo partly drawn) [Compound I-11] |  | 1.49 ± 0.04 OD |  | 1.98 ± 0.09 OD | -5% | -39% |
| COc1cc(Br)c2c(c1OC(C)=O)[C@@]13CCN(CC4CC4)C(C2)C1CCC(=O)C3 (stereo partly drawn) [Compound I-12] |  | 1.19 ± 0.07 OD |  | 0.13 ± 0.01 OD | 16% | 91% |
| COc1cc(-c2ccoc2)c2c(c1O)[C@@]13CCN(CC4CC4)C(C2)C1CCC(=O)C3 (stereo partly drawn) [Compound I-13] |  | 1.34 ± 0.12 OD |  | 0.13 ± 0.01 OD | 6% | 91% |
| C=CCN1CC[C@@]23CC(=O)C(OC)C[C@@H]2[C@@H]1Cc1ccc(OC)c(O)c13 (stereo partly drawn) [Compound I-16] |  | 1.50 ± 0.01 OD |  | 0.91 ± 0.04 OD | -5% | 36% |
| COc1ccc2c(c1O)[C@@]13CCN(CC4CC4)[C@@H](C2)[C@@]1(O)CC(OC)C(=O)C3 (stereo partly drawn) [Compound I-18] |  | 1.40 ± 0.14 OD |  | 1.01 ± 0.06 OD | 1% | 29% |
| COc1ccc2c(c1O)[C@]13C=CCC[C@]1(O)[C@H](C2)N(C)CC3 [Compound I-22] |  | 0.93 ± 0.15 OD |  | 0.10 ± 0.01 OD | 34% | 93% |
| COc1ccc2c(c1O)[C@@]13CCN(C)[C@@H](C2)[C@@]1(O)CCC(=O)C3 [Compound I-25] |  | 1.08 ± 0.05 OD |  | 0.52 ± 0.07 OD | 24% | 63% |
| COc1ccc2c(c1OCc1ccccc1)[C@@]13CCN[C@@H](C2)[C@H]1CC(OC)C(=O)C3 (stereo partly drawn) [Compound I-26] |  | 1.15 ± 0.03 OD |  | 0.19 ± 0.02 OD | 19% | 87% |
| C=C(C)c1cc(OC)c(O)c2c1CC1C3CCC(=O)C[C@@]23CCN1CC1CC1 (stereo partly drawn) [Compound I-27] |  | 1.13 ± 0.04 OD |  | 0.10 ± 0.00 OD | 20% | 93% |
| COC1=C[C@@H]2[C@@H]3Cc4ccc(OC)c(O)c4[C@]2(CCN3C)CC1O (stereo partly drawn) [Compound I-28] |  | 1.24 ± 0.02 OD |  | 0.12 ± 0.01 OD | 13% | 91% |
| COc1ccc2c(c1O)[C@@]13CCN(CC4CCC4)[C@@H](C2)C1CCC(=O)C3 (stereo partly drawn) [Compound I-29] |  | 1.06 ± 0.03 OD |  | 0.11 ± 0.00 OD | 25% | 92% |
| COC1=C[C@]2(O)[C@@H]3Cc4ccc(OC)c(O)c4[C@]2(CCN3C)CC1=O [Compound I-30] |  | 1.25 ± 0.11 OD |  | 0.94 ± 0.05 OD | 12% | 33% |
| COc1cc(Br)c2c3c1O[C@@H]1C(=O)CCC4C(C2)NCC[C@]341 (stereo partly drawn) [II-1] |  | 0.97 ± 0.04 OD |  | 0.19 ± −0.2 OD | 32% | 86% |
| C=CCN1CC[C@@]23c4c5c(-c6ccoc6)cc(OC)c4O[C@@H]2C(=O)CCC3C1C5 (stereo partly drawn) [II-2] |  | 1.23 ± 0.05 OD |  | 0.12 ± 0.01 OD | 13% | 92% |
| COc1cc(C(C)C)c2c3c1O[C@@H]1C(=O)CCC4C(C2)N(CC2CC2)CC[C@]341 (stereo partly drawn) [II-4] |  | 1.18 ± 0.06 OD |  | 0.11 ± 0.01 OD | 17% | 92% |
| COc1ccc2c3c1OC1C(O)CC[C@@H]4[C@H](C2)N(C)CC[C@@]314 (stereo partly drawn) [II-7] |  | 1.32 ± 0.08 OD |  | 0.13 ± 0.02 OD | 7% | 91% |

From patent US10363251B2, “(+)-morphinans as antagonists of toll-like receptor 9 and therapeutic uses thereof” (Mallinckrodt LLC, priority 2009, dated 2019)
